Assays:
SR-BI knockout females = settings: administered during the breeding protocol; Miettinen et al. 2001; cited from earlier work
[1] = test system: Apoe^h/hSRB1^−/−Mx1-Cre mice; experiment: Survival of diet-induced heart attacks in Apoe^h/hSRB1^−/−Mx1-Cre mice after pI-pC injection and switch to low fat diet; assay type: in vivo
Description: The animal model was created by breeding Apoe^h/hSRB1^−/− mice to mice that carry the inducible Mx1-Cre transgene, resulting in Apoe^h/hSRB1^−/−Mx1-Cre mice that are sensitive to diet-induced coronary atherosclerosis and develop fatal myocardial infarctions within 35 days of dietary challenge. However, this new strain of mice can survive its heart attacks if switched to a normal low fat diet and given a single intrapentoneal injection of polyinosinic polycytidylic ribonucleic acid (pI-pC). […] Surviving Apoe^h/hSRB1^−/−MX1-Cre mice can then live for many months. Upon histological analysis of their heart, there is evidence of myocardial infarction and ventricular enlargement. Consequently, the surviving Apoe^h/hSRB1^−/−Mx1-Cre mice are a unique murine model of chronic heart failure that simulates chronic heart failure in humans who survive heart attacks caused by coronary atherosclerosis.
10 Apoe^h/hSRB1^−/−Mx1-Cre mice were fed a high cholesterol diet for 30 days. On day 31, they were injected with pI-pC, and then switched to a low fat diet. Of the 10 mice, 6 survived for two months. At that time point, their hearts were harvested and heart function was assessed in 4 of the 6 mice by Langendorf hemodynamic measurements.

Compound	fertility in the SR-BI knockout females (SR-BI knockout females)	mice surviving for two months (of 10) ([1]; high cholesterol diet for 30 days, pI-pC injected on day 31, then low fat diet, 10 mice)	blood cholesterol levels ([1]; single intraperitoneal injection, activates Mx1-Cre gene, restores normal Arg-61 apoE levels in blood)
CC(C)(Sc1cc(C(C)(C)C)c(O)c(C(C)(C)C)c1)Sc1cc(C(C)(C)C)c(O)c(C(C)(C)C)c1 [probucol]	restore fertility		
polyinosinic polycytidylic ribonucleic acid [pI-pC]		6	rapidly and permanently lowers blood cholesterol levels in a few days

From patent publication US7960606B2, “Mouse model of chronic heart failure and coronary atherosclerosis regression” (The J. David Gladstone Institutes, priority 2006, dated 2011)
